From patent publication US20130296346A1, “DIPHENYL-AMINE DERIVATIVES: USES, PROCESS OF SYNTHESIS AND PHARMACEUTICAL COMPOSITIONS” (Faes Farma, S.A., priority 2010, published 2013)
Marks after values point to notes of the source that are not given here.

Experiments:
[1] = test system: MM1S cells; assay: Multiple myeloma xenograft animal model; format: in vivo, CB17-SCID mice; conditions: 2.5 mg/kg i.v. 3 times/week
Procedure: The multiple myeloma (MM) MM1S cell line was cultured in RPMI-1640 medium containing 10% (v/v) heat-inactivated fetal bovine serum, 2 mM L-glutamine, 100 U/ml penicillin, and 100 μg/ml streptomycin at 37° C. in humidified 95% air and 5% CO2. Cells were periodically tested for Mycoplasma infection and found to be negative.
CB 17-severe combined immunodeficiency (SCID) mice (Charles River laboratories, Lyon, France), kept and handled according to institutional guidelines, complying with Spanish legislation under a 12/12 h light/dark cycle at a temperature of 22° C., received a standard diet and acidified water ad libitum. CB17-SCID mice were inoculated subcutaneously into their lower dorsum with 3×10^7MM1S cells in 100 μl PBS and 100 μl Matrigel basement membrane matrix (Becton Dickinson). When tumors were palpable, mice were randomly assigned into cohorts of 10 mice each, receiving i.v. administration (3 times/week) of the compound at the tail. The volume used for each i. v. administration was […] rendering a final drug concentration of 2.5 mg/kg (body weight). Mice i.v. administered with an equal volume of vehicle were run in parallel. The shortest and longest diameter of the tumor were measured with calipers, and tumor volume (10^−3 cm^3) was calculated using the following standard formula: […]. Animals were sacrificed, according to institutional guidelines, when the diameter of their tumors reached 3 cm or when significant toxicity was observed. Animal body weight and any sign of morbidity were monitored. Drug treatment was for 1 month. Then, tumors were isolated, measured and weighed, and a necropsy analysis involving tumors and distinct organs was carried out.

[2] = test system: SW620; assay: Apoptosis, sub-G1 peak and caspase activation; format: cell-based, human; conditions: SW620, 10 μM
Procedure: (§1) Induction of apoptosis in human colon cancer HCT-116 cell line by Compound 3 (FIG. 8A). The induction of apoptosis was quantitated as the percentage of cells in the sub-G1 region (hypodiplody) of cell cycle analysis. Briefly, cells (5×10^5) were centrifuged and fixed overnight in 70% ethanol at 4° C. Cells were washed 3 times with PBS, incubated for 1 h with 1 mg/ml RNaseA and 20 μg/ml propidium iodide at room temperature, and then analyzed for cell cycle with a Becton Dickinson FACSCalibur flow cytometer (San Jose, Calif.). HCT-116 cells were incubated for the indicated times with 10 μM Compound 3, and apoptosis was then quantitated as percentage of cells in the sub-G1 region in cell cycle analysis by flow cytometry. The position of the sub-G1 peak (hypodiploidy), integrated by apoptotic cells, as well as the G0/G1 and G2/M peaks are indicated by arrows. Untreated control cells were run in parallel. The percentage of cells with a DNA content less than G1 (sub-G1) is indicated in each histogram. The experiment shown is representative of three performed Expression of different apoptosis-related proteins during Compound 3 treatment (FIG. 8B), HCT-116 and SW620 cells were treated with 10 μM Compound 3 for the indicated times and analyzed by immunoblotting with specific antibodies for the indicated proteins. […]

[3] = test system: HCT-116; assay: Apoptosis, sub-G1 peak and caspase activation; format: cell-based, human; conditions: HCT-116, 10 μM
Procedure: as §1

[4] = test system: colorectal cancer cells from patients with Kras mutation; assay: Mutated Kras colon cancer orthotopic animal model; format: in vivo, mice; conditions: compared with vehicle control, FIG. 4A
Procedure: Using an animal model based on colorectal cancer cells from patients with Kras mutation, implanted on mice in the colon area (Yao, M. Cyclooxygenase-2 selective inhibition with NS-398 suppresses proliferation and invasiveness and delays liver metastasis in colorectal cancer. Br. J. Cancer, 2004 Feb. 9; 90(3):712-9), the effects of Compound 3 were tested.

Fc1ccc(CNCCCC=C(c2ccccc2)c2ccccc2)cc1 [Compound 3, (5,5-diphenyl-pent-4-enyl)-(4-fluoro-benzyl)-amine hydrocloride]
MM tumor volume, difference over the control for all measure days ([1]; 1 month): stadistically significant
Tumor Volume ([1]; ex vivo after 1 month): 0.288 cm^3
Tumor Weight ([1]; ex vivo after 1 month): 0.647 g
Inhibition (%) of Tumor Volume ([1]; vs control, 1 month): 92.26** %
Inhibition (%) of Tumor Weight ([1]; vs control, 1 month): 85.84* %
apoptosis (sub-G1 peak, caspase activation) [2]: induces apoptosis
apoptosis (sub-G1 peak, caspase activation) [3]: induces apoptosis
tumour volume of human colorectal cancer [4]: clear reduction effect of the tumour volume
